Test results: patent US20060194756A1 (priority 2004, published 2006)
Read-outs that look alike come from different tables or passages of the source. Values belong to the compound of their own block, whether it stands above or below them.

What was measured:
[1] = system: HIF-1α protein expression in A375 melanoma cells; test: HIF-1α protein accumulation in A375 cells (immunoblot, densitometry); format: cell-based, human; conditions: for prevention of adenosine-induced HIF-1α protein expression: adenosine 100 μM, antagonist 100 nM, hypoxia 4 hours; for abrogation of the effect of Cl-IB-MECA in HIF-1α modulation: antagonist 10 and 100 nM, Cl-IB-MECA 10 and 100 nM; for inhibition of Cl-IB-MECA-induced increase of HIF-1α protein expression: U0126 10 and 30 μM, SB202190 1 and 10 μM
Method: (§1) Cell culture and hypoxia treatment: Cells were maintained in DMEM (A375), EMEM (NCTC 2544) or RPMI 1640 (U87MG, U2OS) medium containing 10% fetal calf serum, penicillin (100 U/ml), streptomycin (100 ug/ml), and L-glutamine (2 mM) at 37° C. in 5% CO2/95% air. Cells were passaged two or three times weekly at a ratio between 1:5 and 1:10. Hypoxic exposure was in BBL™ GasPak pouch™ System (Becton Dickinson) that reduce oxygen concentration of less than 2% within 2 hours of incubation at 35° C.
Cells were harvested and washed with ice-cold PBS containing 1 mM sodium orthovanadate, AEBSF 104 mM, aprotinin 0.08 mM, leupeptin 2 mM, bestatin 4 mM, pepstatin A 1.5 mM, E-64 1.4 mM. Cells were then lysed in Triton lysis buffer. The protein concentration was determined using BCA protein assay kit (Pierce). […] The gel was then electroblotted onto a nitrocellulose membrane. Membranes were blocked with 5% nonfat dry milk in PBS containing 0.1% Tween-20 and incubated with antibodies against HIF-1α (1:250 dilution) and HIF-1β (1:1000 dilution) in 5% nonfat dry milk in PBS/0.1% Tween-20 overnight at 4° C. Aliquots of total protein sample (50 μg) were analyzed using antibodies specific for phosphorylated (Thr183/Tyr185) or total p44/p42 MAPK (1:5000 dilution), phosphorylated (Thr180/Tyr182) or total p38 MAPK (1:1000 dilution) and for A3 receptor (1 μg/ml dilution). Filters were washed and incubated for 1 hour at room temperature with peroxidase-conjugated secondary antibodies against mouse and rabbit IgG (1:2000 dilution). […] The membranes were then stripped and reprobed with tubulin (1:250) to ensure equal protein loading.
U0126 was used at 10 and 30 uM as inhibitor of MEK-1 and MEK-2 to prevent p44 and p42 MAPK activation. SB202190 was used at 1 and 10 μM as inhibitor of p38 MAPK.
(§2) Densitometry analysis: The intensity of each band in immunoblot assay was quantified using molecular analyst/PC densitometry software (Bio-Rad). […] The data were presented as the mean±S.E., and analyzed by the Student's test.

[2] = system: HIF-1β protein expression in A375 melanoma cells; test: HIF-1β protein expression in A375 cells (immunoblot); format: cell-based, human; conditions: hypoxia (Cl-IB-MECA: normoxia and hypoxia)
Method: as §1
Cells were harvested and washed with ice-cold PBS containing 1 mM sodium orthovanadate, AEBSF 104 mM, aprotinin 0.08 mM, leupeptin 2 mM, bestatin 4 mM, pepstatin A 1.5 mM, E-64 1.4 mM. Cells were then lysed in Triton lysis buffer. The protein concentration was determined using BCA protein assay kit (Pierce). Equivalent amounts of protein (35 ug) were subjected to electrophoresis on 7.5% sodium dodecyl sulfate-acrylamide gel. The gel was then electroblotted onto a nitrocellulose membrane. Membranes were blocked with 5% nonfat dry milk in PBS containing 0.1% Tween-20 and incubated with antibodies against HIF-1α (1:250 dilution) and HIF-1β (1:1000 dilution) in 5% nonfat dry milk in PBS/0.1% Tween-20 overnight at 4° C. Aliquots of total protein sample (50 μg) were analyzed using antibodies specific for phosphorylated (Thr183/Tyr185) or total p44/p42 MAPK (1:5000 dilution), phosphorylated (Thr180/Tyr182) or total p38 MAPK (1:1000 dilution) and for A3 receptor (1 μg/ml dilution). Filters were washed and incubated for 1 hour at room temperature with peroxidase-conjugated secondary antibodies against mouse and rabbit IgG (1:2000 dilution). […] The membranes were then stripped and reprobed with tubulin (1:250) to ensure equal protein loading.

[3] = system: HIF-1α protein expression in U2OS osteosarcoma cells; test: HIF-1α protein expression in U2OS osteosarcoma cells under hypoxia; format: cell-based, human; conditions: Cl-IB-MECA 100 nM, 4 hours of hypoxia
Method: as §1
(§3) Cells were harvested and washed with ice-cold PBS containing 1 mM sodium orthovanadate, AEBSF 104 mM, aprotinin 0.08 mM, leupeptin 2 mM, bestatin 4 mM, pepstatin A 1.5 mM, E-64 1.4 mM. Cells were then lysed in Triton lysis buffer. The protein concentration was determined using BCA protein assay kit (Pierce). Equivalent amounts of protein (35 ug) were subjected to electrophoresis on 7.5% sodium dodecyl sulfate-acrylamide gel. The gel was then electroblotted onto a nitrocellulose membrane. […] Aliquots of total protein sample (50 μg) were analyzed using antibodies specific for phosphorylated (Thr183/Tyr185) or total p44/p42 MAPK (1:5000 dilution), phosphorylated (Thr180/Tyr182) or total p38 MAPK (1:1000 dilution) and for A3 receptor (1 μg/ml dilution). […]

[4] = system: HIF-1α protein expression in NCTC 2544 keratinocytes; test: HIF-1α protein expression in NCTC 2544 keratinocytes under hypoxia; format: cell-based, human; conditions: NCTC 2544, Cl-IB-MECA 100 nM, 4 hours of hypoxia
Method: as §1, §3

[5] = system: p38 MAPK phosphorylation in A375 cells; test: p38 MAPK phosphorylation in hypoxic A375 cells (immunoblot); format: cell-based, human; conditions: 4 hours in hypoxia, various concentrations
Method: (§4) Cells were harvested and washed with ice-cold PBS containing 1 mM sodium orthovanadate, AEBSF 104 mM, aprotinin 0.08 mM, leupeptin 2 mM, bestatin 4 mM, pepstatin A 1.5 mM, E-64 1.4 mM. Cells were then lysed in Triton lysis buffer. The protein concentration was determined using BCA protein assay kit (Pierce). Equivalent amounts of protein (35 ug) were subjected to electrophoresis on 7.5% sodium dodecyl sulfate-acrylamide gel. The gel was then electroblotted onto a nitrocellulose membrane. Membranes were blocked with 5% nonfat dry milk in PBS containing 0.1% Tween-20 and incubated with antibodies against HIF-1α (1:250 dilution) and HIF-1β (1:1000 dilution) in 5% nonfat dry milk in PBS/0.1% Tween-20 overnight at 4° C. Aliquots of total protein sample (50 μg) were analyzed using antibodies specific for phosphorylated (Thr183/Tyr185) or total p44/p42 MAPK (1:5000 dilution), phosphorylated (Thr180/Tyr182) or total p38 MAPK (1:1000 dilution) and for A3 receptor (1 μg/ml dilution). Filters were washed and incubated for 1 hour at room temperature with peroxidase-conjugated secondary antibodies against mouse and rabbit IgG (1:2000 dilution). […]
as §2

[6] = system: p44/p42 MAPK phosphorylation in A375 cells; test: p44/p42 MAPK phosphorylation in hypoxic A375 cells (immunoblot); format: cell-based, human; conditions: 4 hours in hypoxia
Method: as §4, §2

[7] = system: HIF-1α protein degradation in A375 cells; test: HIF-1α degradation after return of hypoxic A375 cells to normoxia; format: cell-based, human; conditions: Cl-IB-MECA 100 nM, 4 hours hypoxia then normoxia 0-15 minutes
Method: as §4, §2

[8] = system: HIF-1α protein expression in U87MG glioblastoma cells; test: HIF-1α protein expression in U87MG glioblastoma cells under hypoxia; format: cell-based, human; conditions: Cl-IB-MECA 100 nM, 4 hours of hypoxia
Method: as §1, §3

[9] = intact anesthetized rabbits studied in situ; cited from earlier work
[10] = rat 4 vessel occlusion model; cited from earlier work
[11] = transient middle cerebral artery occlusion focal ischemia; cited from earlier work
[12] = Cl-IB-MECA 100 nM, 4 hours in hypoxia

Structure (SMILES): CNC(=O)[C@H]1O[C@@H](n2cnc3c(NCc4cccc(I)c4)nc(Cl)nc32)[C@H](O)[C@@H]1O [Cl-IB-MECA]
- HIF-1α protein levels in CoCl2-treated cells ([1]; 100 μM CoCl2, normoxia, 4 hours): able to increase the levels of HIF-1α protein
- HIF-1α levels in cells exposed to cycloheximide ([1]; 100 μM CoCl2, normoxia, Cl-IB-MECA 100 nM, CHX 1 μM, within 6 hours): failed to increase
- HIF-1α protein expression in the presence of actinomycin D ([1]; Act-D 10 μg/ml, Cl-IB-MECA 100 nM, 4 hours in hypoxia): able to increase HIF-1α protein expression also in the presence of Act-D
- concentration inducing maximum expression of HIF-1α protein ([1]; hypoxia, 4 hours): 100 nM
- time of maximum peak HIF-1α levels after addition ([1]; hypoxia, Cl-IB-MECA 100 nM): 4 h
- HIF-1α protein expression under hypoxic conditions, time course ([1]; hypoxia, Cl-IB-MECA 100 nM, 2-24 hours): increased in a time-dependent manner
- HIF-1α protein accumulation in normoxia ([1]; normoxia, Cl-IB-MECA 100 nM): did not promote HIF-1α protein accumulation
- modulation of HIF-1β protein expression [2]: did not modify
- HIF-1α protein expression [3]: significant increase
- HIF-1α protein expression [4]: significant increase
- phosphorylation of p38 MAPK [5]: increased the phosphorylation of p38 MAPK in a dose-dependent manner
- concentration giving maximum induction of p44/p42 phosphorylation [6]: 100 nM
- phosphorylation of p44 and p42 ([6]; nanomolar concentrations): induced
- HIF-1α degradation rate after removal of hypoxic conditions [7]: unchanged degradation rate
- HIF-1α protein expression [8]: significant increase

Structure (SMILES): CCCn1c(=O)c2[nH]c(-c3cc(OCC(=O)Nc4ccc5c(c4)OCO5)nn3C)nc2n(CCC)c1=O [MRE 2029F20]
- prevention of adenosine-induced HIF-1α protein expression [1]: not able to prevent

Structure (SMILES): Cn1cc2c(nc(NC(=O)Nc3ccncc3)n3nc(-c4ccco4)nc23)n1 [MRE 3005F20]
- abrogation of the effect of Cl-IB-MECA in HIF-1α modulation ([1]; hypoxia): able to abrogate
- modulation of HIF-1β protein expression [2]: neither MRE 3008F20 nor MRE 3005F20 had any effect

- IC50 ([1]; read-out: IC50 for inhibition of HIF-1α protein increase induced by 10 nM Cl-IB-MECA, hypoxia 4 hours, MRE 3008F20 0.3-30 nM): 0.9 ± 0.08 nM
Structure (SMILES): CCCn1cc2c(nc(NC(=O)Nc3ccc(OC)cc3)n3nc(-c4ccco4)nc23)n1 [MRE 3008F20]
- prevention of adenosine-induced HIF-1α protein expression [1]: abrogated
- abrogation of the effect of Cl-IB-MECA in HIF-1α modulation ([1]; hypoxia): able to abrogate
- modulation of HIF-1β protein expression [2]: neither MRE 3008F20 nor MRE 3005F20 had any effect

Structure (SMILES): C[C@H](Cc1ccccc1)Nc1ncnc2c1ncn2[C@@H]1O[C@H](CO)[C@@H](O)[C@H]1O [PIA, N^6-1-(phenyl-2R-isopropyl) adenosine]
- cardioprotection [9]: pharmacologically induce cardioprotection

Structure (SMILES): Oc1ccc(-c2nc(-c3ccncc3)c(-c3ccc(F)cc3)[nH]2)cc1 [SB202190]
- inhibition of Cl-IB-MECA-induced increase of HIF-1α protein expression [1, 12]: able to inhibit

Structure (SMILES): Nc1nc2c(cnn2CCc2ccccc2)c2nc(-c3ccco3)nn12 [SCH 58261, 5-amino-7-(2-phenylethyl)-2-(2-furyl)-pyrazolo[4,3-e]-1,2,4-triazolo[1,5-c]pyrimidine]
- prevention of adenosine-induced HIF-1α protein expression [1]: not able to prevent

Structure (SMILES): CSCC[C@@H]1NC(=O)[C@H](CC(C)C)NC(=O)[C@H](CCCNC(=N)N)NC(=O)[C@H](CO)NC(=O)[C@@H]2CSSC[C@@H]3NC(=O)[C@H](CO)NC(=O)CNC(=O)[C@H]([C@@H](C)O)NC(=O)[C@H](CSSC[C@H](N)C(=O)N[C@@H](CCCCN)C(=O)NCC(=O)N[C@@H](CCCCN)C(=O)NCC(=O)N[C@@H](C)C(=O)N[C@@H](CCCCN)C(=O)N2)NC(=O)[C@H](CSSC[C@@H](C(N)=O)NC(=O)[C@H](CCCCN)NC(=O)CNC(=O)[C@H](CO)NC(=O)[C@H](CCCNC(=N)N)NC3=O)NC(=O)[C@H](CC(=O)O)NC(=O)[C@H](Cc2ccc(O)cc2)NC1=O [SNX-111]
- neuroprotection [10]: neuroprotective
- neuroprotection [11]: neuroprotective

Structure (SMILES): N#CC(=C(/N)Sc1ccccc1N)/C(C#N)=C(\N)Sc1ccccc1N [U0126]
- inhibition of Cl-IB-MECA-induced increase of HIF-1α protein expression [1, 12]: able to inhibit

Structure (SMILES): Nc1ncnc2c1ncn2[C@@H]1O[C@H](CO)[C@@H](O)[C@H]1O [adenosine]
- modulation of HIF-1β protein expression [2]: did not observe any modulation
